According to US20090048301A1 (IMCLONE SYSTEMS INCORPORATED, priority 2003, published 2009):

System: bovine tubulin
Assay: In vitro tubulin polymerization assay (turbidity at 340 nm)
Format: biochemical
Conditions: 10 μM compound, 30 minute data point, vs 1% DMSO control
Experimental: Briefly, tubulin polymerization is a kinetic process that is temperature-dependent and requires GTP and was performed as follows. Soluble tubulin dimers polymerize into microtubules upon warming, and polymerization in vitro correlates with an increase in turbidity (measured at 340 nm). Lyophilized bovine tubulin (HTS Tubulin—97% tubulin, <3% MAPs—Cytoskeleton Inc.) was ressuspended in G-PEM buffer (80 mM PIPES pH 7, 1 mM EGTA, 1 mM MgCl2, 1 mM GTP, 5% glycerol) to a final concentration of 3 mg/ml and kept at 4° C. Compounds in 100× stock solutions in DMSO were dotted to pre-warmed 96-well plates (Corning Costar 3696), the plates were transferred to a 37° C. plate reader (SPECTRAmax Plus, Molecular Devices), cold tubulin was added to the wells, and the plates were shaken for mixing. The absorbance at 340 nm was determined at one minute intervals for 30 minutes. Kinetic curves with 30 points each were collected for each compound, and the dynamic range was between 0 and 0.4 OD units. The percentage inhibition values were calculated using the 30 minute data point and based on control samples (treated with 1% DMSO only). The assay is a modified version of the HTS kit sold by Cytoskeleton (1830 S. Acoma St., Denver, Colo.), adapted to maximize throughput and reduce time, without reduction in dynamic range or sensitivity, while retaining the ability to detect compounds that inhibit or enhance tubulin polymerization.
Tubulin polymerization is a kinetic process that is temperature-dependent and requires GTP. Soluble tubulin dimers polymerize into microtubules upon warming, and polymerization in vitro correlates with an increase in turbidity (measured at 340 nm). Liophilized bovine tubulin (HTS Tubulin—97% tubulin, <3% MAPs—Cytoskeleton Inc.) was ressuspended in G-PEM buffer (80 mM PIPES pH 7, 1 mM EGTA, 1 mM MgCl2, 1 mM GTP, 5% glycerol) to a final concentration of 3 mg/ml and kept at 4° C. Compounds in 100× stock solutions in DMSO were dotted to pre-warmed 96-well plates (Corning Costar 3696), the plates were immediately transferred to a 37° C. plate reader (SPECTRAmax Plus, Molecular Devices), cold tubulin was added to the wells, plates were shaken for mixing, and absorbance at 340 nm was read every minute for 30 minutes. Kinetic curves with 30 points each were collected for each compound, and the dynamic range was between 0 and 0.4 OD units. Percentage inhibition values were calculated using the 30 minute data point, based on control samples (treated with 1% DMSO only). This assay is a modified version of the HTS kit sold by Cytoskeleton, adapted to maximize throughput and reduce time, without reduction in dynamic range or sensitivity, while retaining the ability to detect compounds that inhibit or enhance tubulin polymerization.

## COc1cccc(Nc2nc(-c3cccnc3Nc3cc(OC)cc(OC)c3)nn2C)c1 [Compound 66, (3,5-Dimethoxy-phenyl)-{3-[5-(3-methoxy-phenylamino)-1-methyl-1H-[1,2,4]triazol-3-yl]-pyridin-2-yl}-amine]
  Tubulin Assay: percent inhibition at 10 μM based on 30 minute data: 73%

## COc1cc(Nc2ncccc2-c2nc(Nc3ccc4c(c3)OCCO4)n(C)n2)cc(OC)c1 [Compound 67, {3-[5-(2,3-Dihydro-benzo[1,4]dioxin-6-ylamino)-1-methyl-1H-[1,2,4]triazol-3-yl]-pyridin-2-yl}-(3,5-dimethoxy-phenyl)-amine]
  Tubulin Assay: percent inhibition at 10 μM based on 30 minute data: 76%

## Cn1nc(-c2cccnc2NCc2ccncc2)nc1Nc1ccc2c(c1)OCCO2 [Compound 68, {3-[5-(2,3-Dihydro-benzo[1,4]dioxin-6-ylamino)-1-methyl-1H-[1,2,4]triazol-3-yl]-pyridin-2-yl}-pyridin-4-ylmethyl-amine]
  Tubulin Assay: percent inhibition at 10 μM based on 30 minute data: 58%

## COc1cccc(Nc2nc(-c3cccnc3NCc3ccncc3)nn2C)c1 [Compound 69, {3-[5-(3-Methoxy-phenylamino)-1-methyl-1H-[1,2,4]triazol-3-yl]-pyridin-2-yl}-pyridin-4-ylmethyl-amine]
  Tubulin Assay: percent inhibition at 10 μM based on 30 minute data: 29%

## Cn1nc(-c2cccnc2NCc2ccncc2)nc1Nc1ccc2c(c1)OCO2 [Compound 70, {3-[5-(Benzo[1,3]dioxol-5-ylamino)-1-methyl-1H-[1,2,4]triazol-3-yl]-pyridin-2-yl}-pyridin-4-ylmethyl-amine]
  Tubulin Assay: percent inhibition at 10 μM based on 30 minute data: 32%

## FC(F)(F)c1cccc(-c2nnc(-c3cccnc3NCc3ccncc3)[nH]2)c1 [Compound 76, Pyridin-4-ylmethyl-{3-[5-(3-trifluoromethyl-phenyl)-4H-[1,2,4]thiazol-3-yl]-pyridin-2-yl}-amine]
  Tubulin Assay: percent inhibition at 10 μM based on 30 minute data: 21%

## Fc1ccc(-c2nnc(-c3cccnc3NCc3ccc4c(c3)OCO4)[nH]2)cc1Cl [Compound 81, Benzo[1,3]dioxol-5-ylmethyl-{3-[5-(3-chloro-4-fluoro-phenyl)-4H-[1,2,4]triazol-3-yl]-pyridin-2-yl}-amine]
  Tubulin Assay: percent inhibition at 10 μM based on 30 minute data: 20%

## FC(F)(F)c1cccc(-c2nnc(-c3cccnc3NCc3ccc4c(c3)OCO4)[nH]2)c1 [Compound 83, Benzo[1,3]dioxol-5-ylmethyl-{3-[5-(3-trifluoromethyl-phenyl)-4H-[1,2,4]triazol-3-yl]-pyridin-2-yl}-amine]
  Tubulin Assay: percent inhibition at 10 μM based on 30 minute data: 25%

## COc1cccc(-c2nnc(-c3cccnc3NCCc3c[nH]cn3)[nH]2)c1 [Compound 90, [2-(1H-Imidazol-4-yl)-ethyl]-{3-[5-(3-methoxy-phenyl)-4H-[1,2,4]triazol-3-yl]-pyridin-2-yl}-amine]
  Tubulin Assay: percent inhibition at 10 μM based on 30 minute data: 25%

## CS(=O)(=O)c1ccc(-c2nnc(-c3cccnc3NCCc3c[nH]cn3)[nH]2)cc1 [Compound 91, [2-(1H-Imidazol-4-yl)-ethyl]-{3-[5-(4-methanesulfonyl-phenyl)-4H-[1,2,4]triazol-3-yl]-pyridin-2-yl}-amine]
  Tubulin Assay: percent inhibition at 10 μM based on 30 minute data: 29%

## COc1cc(Nc2ncccc2-c2nnc(-c3ccc4c(c3)OCO4)[nH]2)cc(OC)c1 [Compound 93, [3-(5-Benzo[1,3]dioxol-5-yl-4H-[1,2,4]triazol-3-yl)-pyridin-2-yl]-(3,5-dimethoxy-phenyl)-amine]
  Tubulin Assay: percent inhibition at 10 μM based on 30 minute data: 28%

## COc1cccc(-c2nnc(-c3cccnc3NCc3ccncc3)[nH]2)c1 [Compound 94, {3-[5-(3-Methoxy-phenyl)-4H-[1,2,4]triazol-3-yl]-pyridin-2-yl}-pyridin-4-ylmethyl-amine]
  Tubulin Assay: percent inhibition at 10 μM based on 30 minute data: 43%

## COc1cccc(-c2nnc(-c3cccnc3NCc3ccco3)[nH]2)c1 [Compound 95, Furan-2-ylmethyl-{3-[5-(3-methoxy-phenyl)-4H-[1,2,4]triazol-3-yl]-pyridin-2-yl}-amine]
  Tubulin Assay: percent inhibition at 10 μM based on 30 minute data: 41%

## FC(F)(F)c1cccc(-c2nnc(-c3cccnc3NCc3ccco3)[nH]2)c1 [Compound 96, Furan-2-ylmethyl-{3-[5-(3-trifluoromethyl-phenyl)-4H-[1,2,4]triazol-3-yl]-pyridin-2-yl}-amine]
  Tubulin Assay: percent inhibition at 10 μM based on 30 minute data: 20%

## CS(=O)(=O)c1ccc(-c2nnc(-c3cccnc3NCCc3cccnc3)[nH]2)cc1 [Compound 99, {3-[5-(4-Methanesulfonyl-phenyl)-4H-[1,2,4]triazol-3-yl]-pyridin-2-yl}-(2-pyridin-3-yl-ethyl)-amine]
  Tubulin Assay: percent inhibition at 10 μM based on 30 minute data: 47%

## c1cnc(NCc2ccc3c(c2)OCCO3)c(-c2nnc(-c3ccc4c(c3)OCO4)[nH]2)c1 [Compound 104, [3-(5-Benzo[1,3]dioxol-5-yl-4H-[1,2,4]triazol-3-yl)-pyridin-2-yl]-(2,3-dihydro-benzo[1,4]dioxin-6-ylmethyl)-amine]
  Tubulin Assay: percent inhibition at 10 μM based on 30 minute data: 21%

## CS(=O)(=O)c1ccc(-c2nnc(-c3cccnc3NCc3cccc(F)c3)[nH]2)cc1 [Compound 107, (3-Fluoro-benzyl)-{3-[5-(4-methanesulfonyl-phenyl)-4H-[1,2,4]triazol-3-yl]-pyridin-2-yl}-amine]
  Tubulin Assay: percent inhibition at 10 μM based on 30 minute data: 37%

## COc1cccc(-c2nnc(-c3cccnc3OCc3ccc4c(c3)OCO4)[nH]2)c1 [Compound 110, 2-(Benzo[1,3]dioxol-5-ylmethoxy)-3-[5-(3-methoxy-phenyl)-4H-[1,2,4]triazol-3-yl]-pyridine]
  Tubulin Assay: percent inhibition at 10 μM based on 30 minute data: 20%

## COc1cccc(CNc2nnc(-c3ccccc3NCc3ccncc3)[nH]2)c1 [Compound 112, (3-Methoxy-benzyl)-(5-{2-[(pyridin-4-ylmethyl)-amino]-phenyl}-4H-[1,2,4]triazol-3-yl)-amine]
  Tubulin Assay: percent inhibition at 10 μM based on 30 minute data: 49%

## COc1ccc(CNc2nnc(-c3ccccc3NCc3ccncc3)[nH]2)cc1 [Compound 113, (4-Methoxy-benzyl)-(5-{2-[(pyridin-4-ylmethyl)-amino]-phenyl}-4H-[1,2,4]triazol-3-yl)-amine]
  Tubulin Assay: percent inhibition at 10 μM based on 30 minute data: 24%

## COc1ccc(Nc2nnc(-c3ccccc3NCc3ccncc3)[nH]2)c(OC)c1 [Compound 114, (2,4-Dimethoxy-phenyl)-(5-{2-[(pyridin-4-ylmethyl)-amino]-phenyl}-4H-[1,2,4]triazol-3-yl)-amine]
  Tubulin Assay: percent inhibition at 10 μM based on 30 minute data: 24%

## COc1ccc(Nc2nnc(-c3ccccc3NCc3ccncc3)[nH]2)cc1 [Compound 116, (4-Methoxy-phenyl)-(5-{2-[(pyridin-4-ylmethyl)-amino]-phenyl}-4H-[1,2,4]triazol-3-yl)-amine]
  Tubulin Assay: percent inhibition at 10 μM based on 30 minute data: 20%

## c1ccc(-c2nnc(Nc3ccc4c(c3)OCO4)[nH]2)c(NCc2ccc3[nH]cnc3c2)c1 [Compound 118, Benzo[1,3]dioxol-5-yl-(5-{2-[(1H-benzoimidazol-5-ylmethyl)-amino]-phenyl}-4H-[1,2,4]triazol-3-yl)-amine]
  Tubulin Assay: percent inhibition at 10 μM based on 30 minute data: 41%

## COc1cc(Nc2nnc(-c3ccccc3NCc3ccc(F)c(F)c3)[nH]2)cc(OC)c1 [Compound 120, {5-[2-(3,4-Difluoro-benzylamino)-phenyl]-4H-[1,2,4]triazol-3-yl}-(3,5-dimethoxy-phenyl)-amine]
  Tubulin Assay: percent inhibition at 10 μM based on 30 minute data: 63%

## CN(C)c1ccc(Nc2nnc(-c3ccccc3NCc3ccc(F)c(F)c3)[nH]2)cc1 [Compound 121, {5-[2-(3,4-Difluoro-benzylamino)-phenyl]-4H-[1,2,4]triazol-3-yl}-(4-dimethylamino-phenyl)-amine]
  Tubulin Assay: percent inhibition at 10 μM based on 30 minute data: 23%

## O=[N+]([O-])c1cc(C(F)(F)F)ccc1-c1nnc(Nc2ccc3c(c2)OCO3)[nH]1 [Compound 124b]
  Tubulin Assay: percent inhibition at 10 μM based on 30 minute data: 26%

## Nc1cc(C(F)(F)F)ccc1-c1nnc(Nc2ccc3c(c2)OCO3)[nH]1 [Compound 124c, [5-(2-Amino-4-trifluoromethyl-phenyl)-4H-[1,2,4]triazol-3-yl]-benzo[1,3]dioxol-5-yl-amine]
  Tubulin Assay: percent inhibition at 10 μM based on 30 minute data: 61%

## FC(F)(F)c1ccc(-c2nnc(Nc3ccc4c(c3)OCO4)[nH]2)c(NCc2cccnc2)c1 [Compound 125, Benzo[1,3]dioxol-5-yl-(5-{2-[(pyridin-3-ylmethyl)-amino]-4-trifluoromethyl-phenyl}-4H-[1,2,4]triazol-3-yl)-amine]
  Tubulin Assay: percent inhibition at 10 μM based on 30 minute data: 96%
